In ChEMBL document CHEMBL5360639, “Cannabidiol Analogue CIAC001 for the Treatment of Morphine-Induced Addiction by Targeting PKM2” (J Med Chem, 2023):

Tests used:
BV-2 = test: Anti-neuroinflammatory activity in mouse BV-2 cells assessed as inhibition of LPS-induced NO production incubated for 24 hrs by microplate reader analysis; assay type: functional, cell-based; settings: BV-2, 24 h
[1] = Therapeutic index, ratio of IC50 for cytotoxicty against mouse BV-2 cells assessed as reduction in cell viability by crystal violet staining based assay to IC50 for nti-neuroinflammatory activity in mouse BV-2 cells assessed as inhibition of LPS-induced NO production; assay type: toxicity; settings: read-out: Ratio IC50
[2] = Cytotoxicity against mouse BV-2 cells assessed as reduction in cell viability by crystal violet staining based assay; assay type: toxicity
[3] = Toxicity in BALB/c mouse assessed as cognitive impairment by measuring time spent on new arm at 10 mg/kg, ip administered once daily for 3 days and measured after 45 mins by Y maze test; assay type: organism-based; settings: in vivo, 72.75 h, time 4365 min

Row | SMILES | IC50 (BV-2) [µM] | selectivity ratio [1] | IC50 [2] [µM] | Activity [3]
1 | C=C(C)[C@@H]1CCC(C)=C[C@H]1c1c(O)cc(CCCCCC)cc1O | 2.1 | 9 | 19 | –
2 | C=C(C)[C@@H]1CCC(C)=C[C@H]1c1c(OC)cc(CCCCC)cc1OC | > 20 | – | > 200 | –
3 | C#CCOc1cc(CCCCC)cc(OCC#C)c1[C@@H]1C=C(C)CC[C@H]1C(=C)C | 200 | – | > 200 | –
4 | C=C(C)[C@@H]1CCC(C)=C[C@H]1c1c(O)cc(CC)cc1O | 2.5 | 9.1 | 22.6 | –
5 | C=C(C)[C@@H]1CCC(C)=C[C@H]1c1c(O)cc(C(C)n2ccnn2)cc1O (stereo partly drawn) | 35.9 | 2.1 | 77.1 | –
6 | C=CCOc1cc(CCCCC)cc(O)c1[C@@H]1C=C(C)CC[C@H]1C(=C)C | 59.8 | 0.7 | 71.5 | –
7 | C=C(C)[C@@H]1CCC(C)=C[C@H]1c1c(O)cc(CCCCCCCCCCCC)cc1O | – | – | > 200 | –
8 | CCCCCc1cc(O)c2c(c1)OC(C)(C)[C@@H]1CCC(C)=C[C@@H]21 [DRONABINOL] | – | – | – | Toxic
9 | C=C(C)[C@@H]1CCC(C)=C[C@H]1c1c(O)cc(CCCCC)cc1OCC | – | 1.1 | 176 | –
10 | C=C(C)[C@@H]1CCC(C)=C[C@H]1c1c(O)cc(CCCCC)cc1OCCC | – | – | > 200 | –
11 | C=C(C)[C@@H]1CCC(C)=C[C@H]1c1c(O)cc(CCCCCCCC)cc1O | – | 0.2 | 26.2 | –
